pIC50: −log10 of the molar value. Where only a bound is given, the exact number is not on record here.

Among the data in patent publication US7429592B2, “Cyanoanthranilamide derivatives and the use thereof as medicaments” (Schering Aktienegesellschaft, priority 2001, dated 2008) are IC50 and melting point values, retold here.

One series concerns the target VEGFR II (KDR) (Homo sapiens, UniProt P35968). In words: Inhibition of the KDR kinase activity (33P-ATP, poly-(Glu4Tyr) substrate, phosphocellulose filter). The format is biochemical. The conditions noted are these: 10 minutes at room temperature; phosphate incorporation. On the procedure: • Stock solution A: 3 mmol of ATP in water, pH 7.0 (−70° C.) • Stock solution B: g-33P-ATP 1 mCi/100 μl • Stock solution C: poly-(Glu4 Tyr) 10 mg/ml in water Solution for Dilutions • Substrate solvent: 10 mmol of DTT, 10 mmol of manganese chloride, 100 mmol of magnesium chloride • Enzyme solution: 120 mmol of tris/HCl, pH 7.5, […] of sodium vanadium oxide
Inhibition of the KDR- and FLT-1 Kinase Activity in the Presence of the Compounds According to the Invention
In a microtiter plate (without protein binding) that tapers to a point, 10 μl of substrate mix (10 μl of volume of ATP stock solution A+25 μCi of g-33P-ATP (about 2.5 μl of stock solution B)+30 μl of poly-(Glu4Tyr) stock solution C+1.21 ml of substrate solvent), 10 μl of inhibitor solution (substances corresponding to the dilutions, 3% DMSO in substrate solvent as a control) and 10 μl of enzyme solution (11.25 μg of enzyme stock solution (KDR or FLT-1 kinase) are added at 4° C. in 1.25 ml of enzyme solution (dilute). It is thoroughly mixed and incubated for 10 minutes at room temperature. Then, 10 μl of stop solution ([…] of EDTA, pH 7.0) is added, mixed, and 10 μl of the solution is transferred to a P 81 phosphocellulose filter. Then, it is washed several times in 0.1 M phosphoric acid. The filter paper is dried, coated with Meltilex and measured in a microbeta counter.
The IC50 values are determined from the inhibitor concentration, which is necessary to inhibit the phosphate incorporation to 50% of the uninhibited incorporation after removal of the blank reading (EDTA-stopped reaction).

A further series deals with T1, Cytochrome P450 1A2 (Homo sapiens, UniProt P05177).
T1 construct: host or cells: baculovirus/insect cells
T1 sequence (P05177 1-516): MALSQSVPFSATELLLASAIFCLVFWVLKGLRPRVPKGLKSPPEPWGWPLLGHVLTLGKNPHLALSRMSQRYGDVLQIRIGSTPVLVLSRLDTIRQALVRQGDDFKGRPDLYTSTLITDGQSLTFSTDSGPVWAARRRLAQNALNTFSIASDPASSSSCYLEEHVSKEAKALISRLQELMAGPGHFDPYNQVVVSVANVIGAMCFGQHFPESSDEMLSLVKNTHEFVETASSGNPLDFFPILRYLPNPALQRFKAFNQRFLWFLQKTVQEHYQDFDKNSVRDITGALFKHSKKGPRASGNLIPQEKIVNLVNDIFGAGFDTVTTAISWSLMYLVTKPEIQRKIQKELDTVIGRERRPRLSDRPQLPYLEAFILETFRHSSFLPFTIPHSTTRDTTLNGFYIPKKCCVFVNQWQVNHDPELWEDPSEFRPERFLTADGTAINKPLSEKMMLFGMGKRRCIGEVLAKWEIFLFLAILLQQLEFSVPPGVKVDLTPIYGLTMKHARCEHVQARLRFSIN
As to the kind of experiment: Cytochrome P450 inhibition (Crespi et al.). Type of series: in vitro ADME. The conditions noted are these: baculovirus/insect cell-expressed human isoenzyme 1A2; read-out: Inhibition of the Cytochrome P450 Isoenzymes IC50, 1A2. On the procedure:
(§1) The Cytochrome P450 inhibition was performed according to the publication of Crespi et al. (Anal. Biochem., 248, 188-190 (1997)) with use of baculovirus/insect cell-expressed, human Cytochrome P 450 isoenzymes (1A2, 2C9, 2C19, 2D6, 3A4).

The next series addresses T2, Cytochrome P450 2C19 (Homo sapiens, UniProt P33261).
T2 construct: host or cells: baculovirus/insect cells
As to the kind of experiment: Cytochrome P450 inhibition (Crespi et al.). The conditions noted are these: baculovirus/insect cell-expressed human isoenzyme 2C19; read-out: Inhibition of the Cytochrome P450 Isoenzymes IC50, 2C19. Type of series: in vitro ADME. On the procedure:
as §1

In another series the target is T3, Cytochrome P450 2C9 (Homo sapiens, UniProt P11712).
T3 construct: host or cells: baculovirus/insect cells
T3 sequence (P11712 whole entry): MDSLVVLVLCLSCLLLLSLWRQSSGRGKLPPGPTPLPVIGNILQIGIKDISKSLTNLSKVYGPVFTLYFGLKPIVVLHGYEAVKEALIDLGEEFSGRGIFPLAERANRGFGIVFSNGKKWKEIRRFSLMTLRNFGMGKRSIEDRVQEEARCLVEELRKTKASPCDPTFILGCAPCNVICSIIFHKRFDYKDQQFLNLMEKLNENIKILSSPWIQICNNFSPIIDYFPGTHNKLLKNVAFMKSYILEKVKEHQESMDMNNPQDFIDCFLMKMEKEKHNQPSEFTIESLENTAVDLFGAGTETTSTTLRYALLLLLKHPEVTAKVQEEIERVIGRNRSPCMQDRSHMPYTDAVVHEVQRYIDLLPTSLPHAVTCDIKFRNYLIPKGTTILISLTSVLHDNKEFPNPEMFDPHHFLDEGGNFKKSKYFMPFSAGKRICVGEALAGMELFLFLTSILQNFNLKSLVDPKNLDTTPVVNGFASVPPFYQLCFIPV
As to the kind of experiment: Cytochrome P450 inhibition (Crespi et al.). The format is in vitro ADME. The conditions noted are these: baculovirus/insect cell-expressed human isoenzyme 2C9; read-out: Inhibition of the Cytochrome P450 Isoenzymes IC50, 2C9. On the procedure: as §1

In another series the target is T4, Cytochrome P450 2D6 (Homo sapiens, UniProt P10635).
T4 construct: host or cells: baculovirus/insect cells
T4 sequence (P10635 whole entry): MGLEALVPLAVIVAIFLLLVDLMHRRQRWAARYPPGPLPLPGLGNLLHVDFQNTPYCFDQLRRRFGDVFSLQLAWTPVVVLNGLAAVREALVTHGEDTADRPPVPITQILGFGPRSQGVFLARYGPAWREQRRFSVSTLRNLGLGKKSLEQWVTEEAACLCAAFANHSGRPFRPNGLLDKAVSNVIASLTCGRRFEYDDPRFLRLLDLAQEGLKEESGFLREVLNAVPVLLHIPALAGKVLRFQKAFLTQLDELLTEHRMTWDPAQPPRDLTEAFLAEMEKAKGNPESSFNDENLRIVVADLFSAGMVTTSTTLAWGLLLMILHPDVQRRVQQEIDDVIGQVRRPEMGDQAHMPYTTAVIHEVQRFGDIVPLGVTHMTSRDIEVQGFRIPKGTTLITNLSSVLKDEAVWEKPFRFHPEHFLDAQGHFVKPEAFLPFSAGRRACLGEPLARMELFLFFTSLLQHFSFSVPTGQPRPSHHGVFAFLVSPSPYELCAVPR
In words: Cytochrome P450 inhibition (Crespi et al.). The format is in vitro ADME. The conditions noted are these: baculovirus/insect cell-expressed human isoenzyme 2D6; read-out: Inhibition of the Cytochrome P450 Isoenzymes IC50, 2D6. On the procedure: as §1

The target of the next series is T5, Cytochrome P450 3A4 (Homo sapiens, UniProt P08684).
T5 construct: host or cells: baculovirus/insect cells
T5 sequence (P08684 whole entry): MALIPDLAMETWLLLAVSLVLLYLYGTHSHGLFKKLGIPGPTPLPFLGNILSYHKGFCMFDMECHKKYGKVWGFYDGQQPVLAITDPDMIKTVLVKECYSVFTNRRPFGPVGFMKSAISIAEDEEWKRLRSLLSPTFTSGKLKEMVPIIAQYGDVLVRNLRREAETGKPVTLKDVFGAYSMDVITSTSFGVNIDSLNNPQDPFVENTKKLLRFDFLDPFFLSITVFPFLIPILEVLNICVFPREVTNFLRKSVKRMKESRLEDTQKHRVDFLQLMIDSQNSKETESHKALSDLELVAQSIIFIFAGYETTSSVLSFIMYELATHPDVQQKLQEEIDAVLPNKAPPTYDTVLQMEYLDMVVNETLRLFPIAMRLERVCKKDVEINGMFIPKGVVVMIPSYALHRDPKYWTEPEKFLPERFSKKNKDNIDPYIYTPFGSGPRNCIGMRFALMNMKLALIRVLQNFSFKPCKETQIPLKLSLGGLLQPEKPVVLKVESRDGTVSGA
In words: Cytochrome P450 inhibition (Crespi et al.). Type of series: in vitro ADME. The conditions noted are these: baculovirus/insect cell-expressed human isoenzyme 3A4; read-out: Inhibition of the Cytochrome P450 Isoenzymes IC50, 3A4. On the procedure:
as §1

VEGFR II (KDR), sequence (P35968 20-1356, species assumed): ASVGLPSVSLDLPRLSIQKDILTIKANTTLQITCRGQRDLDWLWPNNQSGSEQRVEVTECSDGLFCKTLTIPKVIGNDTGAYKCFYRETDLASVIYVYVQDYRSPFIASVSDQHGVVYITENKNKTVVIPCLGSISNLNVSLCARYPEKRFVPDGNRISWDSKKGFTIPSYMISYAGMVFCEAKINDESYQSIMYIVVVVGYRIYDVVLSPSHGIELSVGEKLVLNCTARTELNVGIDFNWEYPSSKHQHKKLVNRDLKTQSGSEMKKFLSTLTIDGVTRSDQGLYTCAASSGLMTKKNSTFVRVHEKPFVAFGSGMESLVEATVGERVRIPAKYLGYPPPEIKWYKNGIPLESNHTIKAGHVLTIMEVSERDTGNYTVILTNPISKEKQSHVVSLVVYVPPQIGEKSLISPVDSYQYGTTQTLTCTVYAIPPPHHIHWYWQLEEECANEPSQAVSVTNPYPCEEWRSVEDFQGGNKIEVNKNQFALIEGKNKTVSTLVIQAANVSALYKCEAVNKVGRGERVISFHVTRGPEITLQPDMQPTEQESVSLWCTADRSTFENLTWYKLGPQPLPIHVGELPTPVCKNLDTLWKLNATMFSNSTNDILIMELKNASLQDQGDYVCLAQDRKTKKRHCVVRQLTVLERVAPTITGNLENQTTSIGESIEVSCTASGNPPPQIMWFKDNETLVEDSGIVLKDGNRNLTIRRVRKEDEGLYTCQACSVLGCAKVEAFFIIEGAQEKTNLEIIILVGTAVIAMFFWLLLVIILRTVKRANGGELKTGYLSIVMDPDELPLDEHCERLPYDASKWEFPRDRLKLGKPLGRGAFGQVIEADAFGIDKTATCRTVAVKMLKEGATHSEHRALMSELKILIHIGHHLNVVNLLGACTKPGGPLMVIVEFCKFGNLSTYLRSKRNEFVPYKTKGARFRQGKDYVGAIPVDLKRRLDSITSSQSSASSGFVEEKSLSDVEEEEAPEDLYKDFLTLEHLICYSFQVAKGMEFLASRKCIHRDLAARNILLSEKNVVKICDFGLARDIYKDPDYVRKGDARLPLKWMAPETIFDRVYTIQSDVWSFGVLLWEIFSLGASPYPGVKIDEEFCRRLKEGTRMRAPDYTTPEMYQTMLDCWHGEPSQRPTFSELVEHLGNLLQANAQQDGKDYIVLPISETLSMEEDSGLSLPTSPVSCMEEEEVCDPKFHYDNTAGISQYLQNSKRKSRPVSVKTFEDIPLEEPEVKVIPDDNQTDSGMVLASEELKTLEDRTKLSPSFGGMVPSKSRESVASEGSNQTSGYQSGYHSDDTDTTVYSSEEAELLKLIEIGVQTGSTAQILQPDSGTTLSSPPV
T2 sequence (P33261 whole entry): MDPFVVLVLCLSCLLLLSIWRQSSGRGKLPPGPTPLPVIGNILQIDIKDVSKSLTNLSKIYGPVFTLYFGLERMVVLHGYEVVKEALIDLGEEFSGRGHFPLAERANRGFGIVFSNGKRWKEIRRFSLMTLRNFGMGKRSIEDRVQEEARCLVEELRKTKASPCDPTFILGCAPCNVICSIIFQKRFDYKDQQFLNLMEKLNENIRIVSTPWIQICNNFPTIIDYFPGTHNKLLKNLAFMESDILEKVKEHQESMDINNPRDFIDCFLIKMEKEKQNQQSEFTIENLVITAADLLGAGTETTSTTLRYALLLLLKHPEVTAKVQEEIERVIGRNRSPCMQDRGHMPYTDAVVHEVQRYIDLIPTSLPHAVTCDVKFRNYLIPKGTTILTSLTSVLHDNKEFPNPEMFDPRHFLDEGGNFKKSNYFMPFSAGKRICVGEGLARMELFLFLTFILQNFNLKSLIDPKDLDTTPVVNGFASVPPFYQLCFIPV

Turning to `N#Cc1cc(CNc2ccccc2C(=O)Nc2cc3ccccc3cn2)ccn1` [Example 1], the pIC50 was 8.00 at VEGFR II (KDR); under 4.52 on Cytochrome P450 1A2; 5.74 on Cytochrome P450 2C19; 5.92 at Cytochrome P450 2C9; under 4.52 at Cytochrome P450 2D6; under 4.52 at Cytochrome P450 3A4. `N#Cc1ccc(CNc2ccccc2C(=O)Nc2cc3ccccc3cn2)cn1` [Example 2] registered a melting point of 173.8 °C. Besides, at VEGFR II (KDR), the pIC50 is 7.30. As for `N#Cc1ncccc1CNc1ccccc1C(=O)Nc1cc2ccccc2cn1` [Example 3], the melting point is 233.4 °C (dec.). The pIC50 against VEGFR II (KDR) is 7.30. For the compound `N#Cc1ccc(CNc2ccccc2C(=O)Nc2ccc3c(c2)CC(=O)N3)cn1` [Example 4], the pIC50 on VEGFR II (KDR) is 6.52. `N#CCn1ncc2ccc(NC(=O)c3ccccc3NCc3ccnc(C#N)c3)cc21` [Example 5] showed a pIC50 against VEGFR II (KDR) of 6.52. Take `COc1ccc2cc(NC(=O)c3ccccc3NCc3ccc(C#N)nc3)c(=O)oc2c1` [Example 6]: the melting point was 173.4 °C. The same compound had a pIC50 on VEGFR II (KDR) of 6.52. Compound `Cn1ncc2ccc(NC(=O)c3ccccc3NCc3ccnc(C#N)c3)cc21` [Example 10] yielded a melting point of 155 to 158 °C. On VEGFR II (KDR), this compound had a pIC50 of 6.70. In the same order, the values of `COc1ccc2cc(NC(=O)c3ccccc3NCc3ccnc(C#N)c3)c(=O)oc2c1` [Example 11] are 165 to 167 °C and 6.70. For the compound `COc1ccc2cc(C)c(NC(=O)c3ccccc3NCc3ccnc(C#N)c3)nc2c1` [Example 12], the melting point was 153 to 155 °C. On VEGFR II (KDR), this compound had a pIC50 of 6.15. On to `N#Cc1cc(CNc2ccccc2C(=O)Nc2ccc3c(c2)NC(=O)C3)ccn1` [Example 13], for which the pIC50 at VEGFR II (KDR) is 6.70. In turn, `Cn1cc2ccc(NC(=O)c3ccccc3NCc3ccnc(C#N)c3)cc2n1` [Example 15] had a pIC50 against VEGFR II (KDR) of 6.70. On to `N#Cc1cc(CNc2ccccc2C(=O)Nc2ccc3cn[nH]c3c2)ccn1` [Example 16], for which the pIC50 against VEGFR II (KDR) is 7.00.

For orientation: pIC50 means −log10 of the IC50, conventionally taken in molar units. By melting point is commonly meant the temperature, or range, at which the solid turns liquid.
